The test system of the assay is B16 cells. Nature of the assay: Test of whitening B16 cells (whiteness of cell pellets observed with the naked eye). The following applies: for EC (whiteness 3+): Mus musculus, whiteness of cells 3 + (gray), read-out: Concentration of the test compound to give whiteness of cells of being 3 + (gray); for Whiteness of Cells: cell pellets after five days. It is filed as cell-based. The protocol: PMC was added to Eagle's MEM medium, to which a fetal calf serum had been added, in a concentration of 100, 50, 20 or 10 µM. 1 × 10⁵ B16 cells were inoculated into the medium. Three days after the inoculation, the medium was exchanged for a fresh one.
Standards of evaluation of whiteness of cells are as follows: 5 + : White 4 + : White to Gray 3 + : Gray 2 + : Gray to Black 1 + : Black (but somewhat paler than control) - : Black

In the case of `COC1(C)CCc2c(C)c(O)c(C)c(C)c2O1` (stereo not drawn) [(3), 2,5,7,8-Tetramethyl-2-methoxzy-6-hydroxychroman], the EC (whiteness 3+) is 50 µM.
Same read-out and setting: the result for `Cc1c2c(c(C(C)C)c(O)c1C(C)C)CCC(C)(C)O2` [(4), 2,2,8-Trimethyl-5,7-diisopropyl-6-hydroxychroman] reads 20 µM.
In the case of `Cc1c(C)c2c(c(C)c1O)CCC(C)(CO)O2` (stereo not drawn) [(5), 2,5,7,8-Tetramethyl-6-hydroxy-2-hydroxymethylchroman], the EC (whiteness 3+) amounted to 40 µM.
As to `CCOC(=O)CC1(C)CCc2c(C)c(O)c(C)c(C)c2O1` (stereo not drawn) [(6), Ethyl 2,5,7,8-tetramethyl-6-hydroxychroman-2-acetate], the EC (whiteness 3+) turned out to be 30 µM.
For `Cc1c(C)c2c(c(C)c1O)CCC(C)(C)O2` [PMC, 2,2,5,7,8-Pentamethyl-6-hydroxychroman], the EC (whiteness 3+) is 50 µM. Besides, the “Whiteness of Cells” value (Concentration 10 µM) is on record as 1 +. Further, the “Whiteness of Cells” value (Concentration 20 µM) is listed as 2 +. Moreover, the “Whiteness of Cells” value (Concentration 50 µM) is reported as 3 +. For the same compound, for the setting “Concentration 100 µM”, the “Whiteness of Cells” value is recorded as 4 +.
